The target in one test is T1, ERα (Homo sapiens, UniProt P03372).
T1 construct: presence of both ER and PR in the MCF-7 nuclear extract; (kit); host or cells: MCF-7 nuclear extract
T1 sequence (P03372 1-595): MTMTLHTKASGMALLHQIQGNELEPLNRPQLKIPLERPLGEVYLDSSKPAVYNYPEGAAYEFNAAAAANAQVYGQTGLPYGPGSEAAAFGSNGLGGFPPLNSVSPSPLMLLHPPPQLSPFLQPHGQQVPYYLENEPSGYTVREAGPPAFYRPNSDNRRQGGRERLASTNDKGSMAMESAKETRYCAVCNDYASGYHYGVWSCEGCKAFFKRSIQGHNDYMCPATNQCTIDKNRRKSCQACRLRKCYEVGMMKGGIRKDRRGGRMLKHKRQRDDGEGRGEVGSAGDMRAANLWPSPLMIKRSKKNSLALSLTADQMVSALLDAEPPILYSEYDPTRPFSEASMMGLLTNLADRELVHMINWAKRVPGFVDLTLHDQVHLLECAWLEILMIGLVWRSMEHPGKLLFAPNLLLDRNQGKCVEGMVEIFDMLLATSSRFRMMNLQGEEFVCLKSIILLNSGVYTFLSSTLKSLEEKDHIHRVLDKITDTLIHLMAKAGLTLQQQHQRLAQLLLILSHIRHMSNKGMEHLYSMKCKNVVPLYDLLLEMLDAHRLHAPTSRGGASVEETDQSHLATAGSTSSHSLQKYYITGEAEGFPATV
As to the kind of experiment: NR peptide ERα ELISA kit, percentage of ER activation. It is filed as biochemical. The conditions noted are these: 25 μM sample; normalized to vehicle control (DMSO) = 100%; over 100% agonist, below 100% antagonist; MCF-7 nuclear extract as ER source. The text has this: Relative units of light intensity for each test compound were normalized to the vehicle control (DMSO) and then expressed in percentage of ER activation. […] The data reported here represent results of three independent determinations in duplicate. Error bars represent the standard deviation of the three determinations.
(In general: An ELISA detects its analyte on a solid surface through an enzyme-linked reagent.)

Test [1] concerns the target T2, estrogen receptor alpha (ERα) (Homo sapiens, UniProt P03372).
T2 construct: 10 ng of purified full-length ERα (Active Motif, Carlsbad, Calif.); purchased Active Motif, Carlsbad, Calif
T2 sequence (P03372 1-595): T1 sequence (P03372 1-595)
As to the kind of experiment: Gel filtration displacement assay, competitive binding with 3H-estradiol. The note with it: test compound 10 μM; 25 nM 3H-estradiol; 10 ng purified full-length ERα; no cold ligand = 100%; lower = stronger binding. On the procedure:
A gel filtration displacement assay for estrogen receptor alpha (ERα) was employed to assess competitive binding by ER antagonists among the test compounds in 10 μM. ER binding assays were conducted in duplicate in 50 mM Tris-HCl, pH7.5, 1 mM EDTA, 20% Glycerol and 1 mM DTT buffer. Radioligands that were used include [6, 7-^3H] estradiol (specific activity 44 Ci/mmol, Amersham Biosciences).
Following 1-hour incubation, assays were terminated by filtration through Whatman GF/B filters. […] Counts were normalized to the negative controls (no cold ligand) as the percentage of bound radiolabeled-estradiol remaining after separating bound radioligand from free radioligand. The negative controls were taken as 100% bound radioligand remaining. […] Results are reported as the average values of three independent experiments in duplicate. Error bars represent standard deviation of the three determinations (FIG. 2).
(In general: In gel filtration, larger molecules generally elute earlier.)

This is an account of results in patent US8455537B2, “Estrogen receptor modulators and uses thereof” (University of Medicine and Dentistry of New Jersey, priority 2006, dated 2013).

On to `C[C@]12CC[C@@H]3c4ccc(O)c(O)c4CC[C@H]3[C@@H]1CC[C@@H]2O` [4-hydroxy estradiol], for which the “percentage of ER activation” value at ERα is recorded as 196.3%.
In the case of `CCC(=O)C1=C(O)CCC(c2cccc(Oc3ccccc3)c2)C1=O` (stereo not shown) [Compound A], the “percentage of bound radiolabeled-estradiol remaining” value in test [1] is reported as 65.9%. The “percentage of ER activation” value at ERα turned out to be 53.1%.
As for `O=C1c2ccccc2C(=O)N1CN(C(=O)c1ccccc1)c1ccc(O)cc1` [Compound B], the “percentage of bound radiolabeled-estradiol remaining” value in test [1] amounted to 89.8%. The “percentage of ER activation” value at ERα is 69%.
The matching figures for `CC#C[C@]1(O)CC[C@H]2[C@@H]3CCC4=CC(=O)CCC4=C3[C@@H](c3ccc(N(C)C)cc3)C[C@@]21C` [mifepristone, reference compound]: more than 100% and 51.7%.
